Values joined by “and” are separate entries in the source; they are usually repeats but may differ in a detail not shown here. Equal values may be shown once.
Key:
Plasmodium falciparum [1] = assay: Hit confirmation in dose-response curve in NF54 nanoGlo assay, at 72h; type: functional, organism-based, Erythrocyte; design: timepoint 72 hour; details: Plasmodium falciparum, NF54, Erythrocyte, 72 h
Plasmodium falciparum [2] = assay: Hit confirmation in dose-response curve in NF54 pLDH assay, at 72h; type: functional, organism-based, Erythrocyte; design: timepoint 72 hour; details: Plasmodium falciparum, NF54, Erythrocyte, 72 h
Plasmodium falciparum [3] = assay: Hit confirmation in dose-response curve in Dd2 pLDH assay, at 72h; type: functional, organism-based, Erythrocyte; design: timepoint 72 hour; details: Plasmodium falciparum, Dd2, Erythrocyte, 72 h
Plasmodium falciparum [4] = assay: Hit confirmation in dose-response curve in NF54 nanoGlo assay, at 12h; type: functional, organism-based, Erythrocyte; design: timepoint 12 hour; details: Plasmodium falciparum, NF54, Erythrocyte, 12 h
[5] = Hit confirmation in dose-response curve in HepG2 cytotoxicity assay, at 72h; type: toxicity, cell-based, Homo sapiens; design: timepoint 72 hour; details: human, HepG2 cells
Plasmodium falciparum [6] = assay: Re-testing in dose-response curve in 3D7 pLDH assay, at 72h; type: functional, organism-based, Erythrocyte; design: timepoint 72 hour
Plasmodium falciparum [7] = assay: Re-testing in dose-response curve in Dd2 pLDH assay, at 72h; type: functional, organism-based, Erythrocyte; design: timepoint 72 hour
HepG2 = assay: Re-testing in dose-response curve in HepG2 cytotoxicity assay, at 72h; type: toxicity, cell-based, Homo sapiens; design: timepoint 72 hour; details: hepg2
[8] = Plasmodium falciparum, Dd2, Erythrocyte, 72 h
[9] = Plasmodium falciparum, 3D7, Erythrocyte, 72 h

Row | Structure (SMILES) | IC50 (Plasmodium falciparum [1]) [µM] | IC50 (Plasmodium falciparum [2]) [µM] | IC50 (Plasmodium falciparum [3]) [µM] | IC50 (Plasmodium falciparum [4]) [µM] | IC50 at 72 h [5] [µM] | IC50 (Plasmodium falciparum [6]; erythrocyte) | IC50 (Plasmodium falciparum [7]; [8]) [µM] | IC50 (Plasmodium falciparum [7]; erythrocyte) | IC50 (Plasmodium falciparum [6]; [9]) [µM] | IC50 (HepG2)
1 | O=C(NC1CCN(CCOc2ccc(Cl)cc2)CC1)c1c[nH]c2ccncc2c1=O | 1.12 | 1.41 | 1.45 | 3.16 | > 10 | 0.606 µM and 0.883 µM |  |  |  | 
2 | COc1ccc(-c2cncc(C(=O)NCC3CCN(CCN(C)C)CC3)c2)cc1 | 1.7 | 1.38 | 1.38 | 2.95 | > 10 |  | 2.3 | 3.11 µM |  | 
3 | c1ccc(-c2ccnc(C3CCN(CC45CNCC4C5)CC3)n2)cc1 (centres undefined) | 1.62 | 1.91 | 1.86 | 2.88 | > 10 | 0.859 µM |  | 1.59 µM | 0.714 | 
4 | CN1CCN(CCCCNC2CC3CCC(C2)N3Cc2ccccc2)CC1 (centres undefined) | 3.02 | 3.02 | 1.83 | > 10 | > 10 | 1.08 µM |  |  |  | 22.8 µM and > 8.33 µM
5 | Cc1c(CN2CCC(O)(Cn3ccnc3)CC2)[nH]c2c(Cl)cccc12 | 1.7 | 1.95 |  | 2.63 | > 10 | 1.65 µM and 1.32 µM and 1.38 µM |  |  |  | 20.3 µM
6 | CC1(N2CCC2)CCC(NC[C@H]2CCN(Cc3ccccc3)C2)CC1 (some centres undefined) | 3.24 | 2.63 | 1.82 | 9.12 | > 10 | 1.63 µM and 0.618 µM and 0.631 µM | 1.58 | 1.78 µM and 1.6 µM |  | 
7 | Cc1cnccc1N1CCCN(Cc2ccccc2OCCN2CCN(C)CC2)CC1 | 1.41 | 1.2 | 1.23 | 2.45 | > 10 | 0.75 µM and 0.903 µM |  |  | 0.68 | 
8 | Nc1ccnc2ccc(-c3ccc(C(=O)NCC4CCOCC4)cc3)cc12 | 1.23 | 3.31 | 2.69 | > 10 | > 10 |  |  |  |  | 
9 | O=C(NCC1CC1)c1cc2c(OCc3ccc(Cl)cc3)cccc2[nH]1 | 3.89 | 10.2 | 6.46 | > 10 | > 10 |  |  |  |  | 
10 | Cc1cccc(N2CCC(NCc3cc(C)cc(CN4CCN(C)CC4)c3C)CC2)c1 | 3.09 | 2.95 | 3.02 | 5.89 | > 10 |  |  |  |  | 
11 | Cc1nc(N2CCN(C)CC2)cc(N2CCN(S(=O)(=O)c3ccccc3C(F)(F)F)CC2)n1 | 1.23 | 6.61 | 4.37 | 0.977 | > 10 |  |  |  |  | 
12 | COc1ccc2nc3cc(Cl)ccc3c(O)c2c1 | 0.912 | 1.41 | 2.4 | > 10 | > 10 |  |  |  |  | 
13 | COC(CN(Cc1nc(N)nc(Nc2ccc(C)cc2)n1)Cc1nc(N)nc(Nc2ccc(C)cc2)n1)OC | 0.912 | 3.47 | 1.45 | > 10 | > 10 |  |  |  |  | 
14 | COc1ccc(-c2cc(-c3ccccc3O)n([C@@H]3C(=O)Nc4ccc(Br)cc43)n2)cc1 | 4.07 | 8.71 | 8.71 | 4.9 | > 10 |  |  |  |  | 
15 | Cc1ccc2nc(NC[C@H]3CCN(C4CC4)C3)cc(C)c2c1 | 2.04 | 3.02 | 2.45 | 3.16 | > 10 |  |  |  |  | 
16 | CN1CCN(CCNC2CCN3CCCC3C2)C(c2ccccc2)C1 (centres undefined) | 4.17 | 4.27 | 3.8 | > 10 | > 10 |  |  |  |  | 
17 | Cc1ccc2[nH]c(-c3cc4n(n3)CCN(c3ccnc(N)n3)C4)nc2c1C | 1.78 | 2.63 | 2.63 | 3.63 | > 10 |  |  |  |  | 
18 | CCNc1nc(C)cc(Nc2ccc(NC(=O)Nc3ccc(F)cc3F)cc2)n1 | 0.263 | 0.389 | 0.269 | 0.562 | 2.63 |  |  |  |  | 

Row | Structure (SMILES) | IC50 (Plasmodium falciparum [1]) [µM] | IC50 (Plasmodium falciparum [2]) [µM] | IC50 (Plasmodium falciparum [3]) [µM] | IC50 (Plasmodium falciparum [4]) [µM] | IC50 at 72 h [5] [µM] | IC50 (Plasmodium falciparum [6]; erythrocyte) | IC50 (Plasmodium falciparum [7]; [8]) [µM] | IC50 (Plasmodium falciparum [7]; erythrocyte) | IC50 (Plasmodium falciparum [6]; [9]) [µM] | IC50 (HepG2)
19 | CCCN1CCC(Nc2cc(C)nc3ccccc23)CC1 | 2.19 | 2.29 | 1.78 | 5.37 | > 10 |  |  |  |  | 
20 | O[C@H]1CCN(Cc2ccccc2CNc2cccc(-n3ccnc3)n2)C1 | 1.41 | 2.24 | 2.19 | 3.63 | > 10 |  |  |  |  | 
21 | Cc1ccccc1CN1CCC(CNc2c3c(nc4ccccc24)CCC3)CC1 | 0.708 | 0.977 | 0.741 | 3.63 | 5.25 |  |  |  |  | 
22 | COc1ccc2[nH]cc(C3=CCN(c4ccc5nnc(-c6ccccc6F)n5n4)CC3)c2c1 | 2.69 | 8.71 | > 10 | > 10 | > 10 |  |  |  |  | 
23 | CN1CCN(c2ccc(C(F)(F)F)cc2NCc2cnc[nH]2)CC1 | 4.07 | 4.68 | 4.27 | 6.61 | > 10 |  |  |  |  | 
24 | Cc1cc(NC[C@H](O)COc2ccc(F)cc2)nc2ccccc12 | 2.19 | 6.92 | 4.07 | 4.17 | > 10 |  |  |  |  | 
25 | C[C@H](Nc1nc(N)c2ccccc2n1)c1cccc(-n2cncn2)c1 | 4.47 | 5.89 | 4.17 | 10.2 | > 10 |  |  |  |  | 
26 | CN(CCCn1ccnc1)c1ccnc2cc(Br)ccc12 | 0.55 | 0.437 | 0.437 | 1.1 | > 10 |  |  |  |  | 
27 | CCN1CCC(N2CCC(C(=O)NCCc3ccc(OC(F)(F)F)cc3)CC2)CC1 | 3.31 | 3.8 | 3.31 | 6.76 | > 10 |  |  |  |  | 
28 | Cc1cc(NCCCN2CCC[C@H](O)C2)c2cc(F)ccc2n1 | 3.39 | 3.89 | 2.69 | 7.24 | > 10 |  |  |  |  | 
29 | Cc1cc(O)c(Cl)cc1-c1ccc2nccc(N)c2c1 | 0.324 | 0.38 | 0.302 | > 10 | > 10 |  |  |  |  | 
30 | c1ccc(CCC23CN(Cc4ccccn4)CC2CN(Cc2ccns2)C3)cc1 (centres undefined) | 1.45 | 3.55 | 4.17 | 6.46 | > 10 |  |  |  |  | 
31 | CCN1CCC[C@H](Nc2cccc(-n3ccnc3)n2)C1 | 3.63 | 4.37 | 3.8 | 7.08 | > 10 |  |  |  |  | 
32 | COCCNc1nc(N[C@@H](C)c2ccccc2)c2ccccc2n1 | 3.02 | 5.37 | 2.75 | 8.71 | > 10 |  |  |  |  | 
33 | O=C1CN(C(=O)c2ccnc3ccccc23)CCN1Cc1ccccc1F | 6.31 | 14.5 | > 10 | > 10 | > 10 |  |  |  |  | 
34 | Nc1cc(N2CCC(c3nc4cc(F)ccc4[nH]3)CC2)nc(N2CCOCC2)n1 | 8.71 | 8.32 | > 10 | > 10 | > 10 |  |  |  |  | 
35 | N#Cc1cccc(Cl)c1N1CCC(N2CCCC2)CC1 | 3.02 | 3.89 | 3.8 | > 10 | > 10 |  |  |  |  | 
